Laboratory results as given in US20220089575A1, “FARNESOID X RECEPTOR AGONISTS AND USES THEREOF” (Metacrine, Inc., priority 2017, published 2022).

Target: T1, hFXR (Homo sapiens, UniProt Q96RI1)
T1 construct: expressed in transfected cells; host or cells: CV-1 cells
T1 sequence (Q96RI1 1-486): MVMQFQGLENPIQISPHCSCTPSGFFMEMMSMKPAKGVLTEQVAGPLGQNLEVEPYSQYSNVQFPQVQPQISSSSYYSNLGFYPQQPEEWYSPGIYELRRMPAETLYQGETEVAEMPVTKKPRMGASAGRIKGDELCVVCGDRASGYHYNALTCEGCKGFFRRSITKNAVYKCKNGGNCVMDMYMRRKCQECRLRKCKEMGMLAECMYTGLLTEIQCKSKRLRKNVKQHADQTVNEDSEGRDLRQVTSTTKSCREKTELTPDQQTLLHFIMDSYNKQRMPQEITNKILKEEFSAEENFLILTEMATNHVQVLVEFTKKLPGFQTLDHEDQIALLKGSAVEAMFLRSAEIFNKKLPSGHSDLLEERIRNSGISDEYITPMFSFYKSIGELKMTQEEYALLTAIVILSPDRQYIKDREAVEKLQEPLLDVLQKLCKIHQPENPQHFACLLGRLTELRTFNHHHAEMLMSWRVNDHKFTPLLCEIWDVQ
T1 sequence (P19793 1-462 partner): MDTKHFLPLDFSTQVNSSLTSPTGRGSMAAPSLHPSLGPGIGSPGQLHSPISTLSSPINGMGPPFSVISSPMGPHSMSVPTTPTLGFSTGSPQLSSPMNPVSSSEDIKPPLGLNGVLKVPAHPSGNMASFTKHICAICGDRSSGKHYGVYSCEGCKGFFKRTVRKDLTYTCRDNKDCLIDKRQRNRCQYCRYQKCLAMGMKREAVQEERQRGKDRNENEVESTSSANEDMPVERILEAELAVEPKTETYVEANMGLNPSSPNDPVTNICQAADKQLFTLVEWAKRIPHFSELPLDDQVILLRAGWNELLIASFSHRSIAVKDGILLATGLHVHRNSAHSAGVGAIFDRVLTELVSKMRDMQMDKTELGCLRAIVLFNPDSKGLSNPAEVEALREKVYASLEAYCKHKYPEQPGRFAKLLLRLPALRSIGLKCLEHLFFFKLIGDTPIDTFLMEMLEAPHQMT
Assay: In Vitro FXR Assay (TK): TK-ECRE-luc reporter in transfected CV-1 cells
Assay type: cell-based
Details: 18 hrs, luminescence, maximum efficacy of <25% of the Fexarmine control classified as '+'
In short: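 CV-1 cells transiently co-transfected with hFXR, hRXR, TK-ECRE-luc and pCMX-YFP plasmids in charcoal-stripped serum medium. Serially diluted compounds added, cells incubated 18 h at 37° C, then lysed and luminescence read.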

| SMILES | EC50 [nM] |
| --- | --- |
| COc1ccc([C@H]2CC[C@H](CN(c3cccc(-c4cnn(C(C)C)c4)c3)C(=O)[C@H]3CC[C@H](NC(C)=O)CC3)CC2)cc1C [Compound 26.10, trans-4-Acetamido-N-(3-(1-isopropyl-1H-pyrazol-4-yl)phenyl)-N-((trans-4-(4-methoxy-3-methylphenyl)cyclohexyl)methyl) cyclohexanecarboxamide] | ≤ 250 |
| COC(=O)NC[C@H]1CC[C@H](C(=O)N(C[C@H]2CC[C@H](c3ccc(OC)c(C)c3)CC2)c2cccc(-c3cnn(C4CC4)c3)c2)CC1 [Compound 26.14, Methyl ((trans-4-((3-(1-cyclopropyl-1H-pyrazol-4-yl)phenyl)((trans-4-(4-methoxy-3-methylphenyl)cyclohexyl)methyl)carbamoyl)cyclohexyl)methyl)carbamate] | ≤ 250 |
| COc1ccc([C@H]2CC[C@H](CN(c3cccc(-c4coc(C5CC5)n4)c3)C(=O)[C@H]3CC[C@H](NC(=O)CO)CC3)CC2)cc1C [Compound 26.16, trans-N-(3-(2-Cyclopropyloxazol-4-yl)phenyl)-4-(2-hydroxyacetamido)-N-((trans-4-(4-methoxy-3-methylphenyl)cyclohexyl)methyl) cyclohexanecarboxamide] | ≤ 250 |
| COc1ccc([C@H]2CC[C@H](CN(c3cc(-c4coc(C5CC5)n4)ccn3)C(=O)[C@H]3CC[C@H](NC(=O)CO)CC3)CC2)cc1C [Compound 26.18, trans-N-(4-(2-Cyclopropyloxazol-4-yl)pyridin-2-yl)-4-(2-hydroxyacetamido)-N-((trans-4-(4-methoxy-3-methylphenyl)cyclohexyl)methyl) cyclohexanecarboxamide] | ≤ 250 |
| COc1ccc([C@H]2CC[C@H](CN(c3cc(-c4coc(C5CC5)n4)ccn3)C(=O)[C@H]3CC[C@H](NC(C)=O)CC3)CC2)cc1C [Compound 26.20, trans-4-Acetamido-N-(4-(2-cyclopropyloxazol-4-yl)pyridine-2-yl)-N-((trans-4-(4-methoxy-3-methylphenyl)cyclohexyl)methyl) cyclohexanecarboxamide] | ≤ 250 |
| COc1ccc([C@H]2CC[C@H](CN(c3cc(-c4coc(C5CC5)n4)ccn3)C(=O)[C@H]3CC[C@H](CN)CC3)CC2)nc1C [Compound 26.22, trans-4-(Aminomethyl)-N-(4-(2-cyclopropyloxazol-4-yl)pyridin-2-yl)-N-((trans-4-(5-methoxy-6-methylpyridin-2-yl)cyclohexyl)methyl) cyclohexanecarboxamide] | ≥ 1000 |
| COc1ccc([C@H]2CC[C@H](CN(c3cccc(-c4cnn(C5CC5)c4)c3)C(=O)[C@H]3CC[C@H](OC(=O)NCCNC(C)=O)CC3)CC2)cc1C [Compound 26.23, trans-4-((3-(1-Cyclopropyl-1H-pyrazol-4-yl)phenyl)((trans-4-(4-methoxy-3-methylphenyl)cyclohexyl)methyl)carbamoyl)cyclohexyl (2-acetamidoethyl)carbamate] | ≤ 250 |
| COC(=O)NCCNC(=O)O[C@H]1CC[C@H](C(=O)N(C[C@H]2CC[C@H](c3ccc(OC)c(C)c3)CC2)c2cccc(-c3cnn(C4CC4)c3)c2)CC1 [Compound 26.25, trans-4-((3-(1-Cyclopropyl-1H-pyrazol-4-yl)phenyl)((trans-4-(4-methoxy-3-methylphenyl)cyclohexyl)methyl)carbamoyl)cyclohexyl methyl ethane-1,2-diyldicarbamate] | ≤ 250 |
| COc1ccc([C@H]2CC[C@H](CN(c3cc(-c4coc(C5CC5)n4)ccn3)C(=O)[C@H]3CC[C@H](CNS(C)(=O)=O)CC3)CC2)nc1C [Compound 26.26, trans-N-(4-(2-Cyclopropyloxazol-4-yl)pyridin-2-yl)-N-((trans-4-(5-methoxy-6-methylpyridin-2-yl)cyclohexyl)methyl)-4-(methylsulfonamidomethyl) cyclohexanecarboxamide] | ≤ 250 |
| COC(=O)NC[C@H]1CC[C@H](C(=O)N(C[C@H]2CC[C@H](c3ccc(OC)c(C)n3)CC2)c2cc(-c3coc(C4CC4)n3)ccn2)CC1 [Compound 26.27, Methyl ((trans-4-((4-(2-cyclopropyloxazol-4-yl)pyridin-2-yl)((trans-4-(5-methoxy-6-methylpyridin-2-yl)cyclohexyl)methyl)carbamoyl)cyclohexyl)methyl)carbamate] | ≤ 250 |
| COc1ccc([C@H]2CC[C@H](CN(c3cc(-c4coc(C5CC5)n4)ccn3)C(=O)[C@H]3CC[C@H](CNC(=O)CO)CC3)CC2)nc1C [Compound 26.29, trans-N-(4-(2-Cyclopropyloxazol-4-yl)pyridin-2-yl)-4-((2-hydroxyacetamido)methyl)-N-((trans-4-(5-methoxy-6-methylpyridin-2-yl)cyclohexyl)methyl) cyclohexanecarboxamide] | 250 to 1000 |

Continued, values first:

| EC50 [nM] | SMILES |
| --- | --- |
| ≤ 250 | COc1ccc([C@H]2CC[C@H](CN(c3cccc(-c4cnn(C(C)C)c4)c3)C(=O)[C@H]3CC[C@H](NC(=O)COC(C)=O)CC3)CC2)cc1C [Compound 26.11, 2-((trans-4-((3-(1-Isopropyl-1H-pyrazol-4-yl)phenyl)((trans-4-(4-methoxy-3-methylphenyl)cyclohexyl)methyl)carbamoyl)cyclohexyl)amino)-2-oxoethyl acetate] |
| ≤ 250 | COc1ccc([C@H]2CC[C@H](CN(c3cccc(-c4cnn(C(C)C)c4)c3)C(=O)[C@H]3CC[C@H](NC(=O)CO)CC3)CC2)cc1C [Compound 26.12, trans-4-(2-Hydroxyacetamido)-N-(3-(1-isopropyl-1H-pyrazol-4-yl)phenyl)-N-((trans-4-(4-methoxy-3-methylphenyl)cyclohexyl)methyl) cyclohexanecarboxamide] |
| ≤ 250 | COc1ccc([C@H]2CC[C@H](CN(c3cccc(-c4cnn(C5CC5)c4)c3)C(=O)[C@H]3CC[C@H](CNC(C)=O)CC3)CC2)cc1C [Compound 26.13, trans-4-(Acetamidomethyl)-N-(3-(1-cyclopropyl-1H-pyrazol-4-yl)phenyl)-N-((trans-4-(4-methoxy-3-methylphenyl)cyclohexyl)methyl) cyclohexanecarboxamide] |
| ≤ 250 | COc1ccc([C@H]2CC[C@H](CN(c3cccc(-c4cnn(C5CC5)c4)c3)C(=O)[C@H]3CC[C@H](CNS(C)(=O)=O)CC3)CC2)cc1C [Compound 26.15, trans-N-(3-(1-Cyclopropyl-1H-pyrazol-4-yl)phenyl)-N-((trans-4-(4-methoxy-3-methylphenyl)cyclohexyl)methyl)-4-(methylsulfonamidomethyl) cyclohexanecarboxamide] |
| ≤ 250 | COc1ccc([C@H]2CC[C@H](CN(c3cc(-c4coc(C5CC5)n4)ccn3)C(=O)[C@H]3CC[C@H](NC(=O)COC(C)=O)CC3)CC2)cc1C [Compound 26.17, 2-((trans-4-((4-(2-cyclopropyloxazol-4-yl)pyridine-2-yl)((trans-4-(4-methoxy-3-methylphenyl)cyclohexyl)methyl)carbamoyl)cyclohexyl)amino)-2-oxoethyl acetate] |
| ≤ 250 | COc1ccc([C@H]2CC[C@H](CN(c3cccc(-c4coc(C5CC5)n4)c3)C(=O)[C@H]3CC[C@H](NC(C)=O)CC3)CC2)cc1C [Compound 26.19, trans-4-Acetamido-N-(3-(2-cyclopropyloxazol-4-yl)phenyl)-N-((trans-4-(4-methoxy-3-methylphenyl)cyclohexyl)methyl) cyclohexanecarboxamide] |
| ≤ 250 | COC(=O)N[C@H]1CC[C@H](C(=O)N(C[C@H]2CC[C@H](c3ccc(OC)c(C)n3)CC2)c2cc(-c3coc(C4CC4)n3)ccn2)CC1 [Compound 26.21, Methyl (trans-4-((4-(2-cyclopropyloxazol-4-yl)pyridine-2-yl)((trans-4-(5-methoxy-6-methylpyridin-2-yl)cyclohexyl)methyl)carbamoyl)cyclohexyl)carbamate] |
| ≤ 250 | COc1ccc([C@H]2CC[C@H](CN(c3cccc(-c4cnn(C5CC5)c4)c3)C(=O)[C@H]3CC[C@H](OC(=O)NCCNS(C)(=O)=O)CC3)CC2)cc1C [Compound 26.24, trans-4-((3-(1-Cyclopropyl-1H-pyrazol-4-yl)phenyl)((trans-4-(4-methoxy-3-methylphenyl)cyclohexyl)methyl)carbamoyl)cyclohexyl (2-(methylsulfonamido)ethyl)carbamate] |
| ≤ 250 | CCOC(=O)NC[C@H]1CC[C@H](C(=O)N(C[C@H]2CC[C@H](c3ccc(OC)c(C)n3)CC2)c2cc(-c3coc(C4CC4)n3)ccn2)CC1 [Compound 26.28] |
| ≤ 250 | COc1ccc([C@H]2CC[C@H](CN(c3cc(-c4cnn(C5CC5)c4)ccn3)C(=O)[C@H]3CC[C@H](NC(C)=O)CC3)CC2)cc1C [Compound 26.30, trans-4-Acetamido-N-(4-(1-cyclopropyl-1H-pyrazol-4-yl)pyridin-2-yl)-N-((trans-4-(4-methoxy-3-methylphenyl)cyclohexyl)methyl) cyclohexanecarboxamide] |
